Results: PubChem BioAssay (NCI)
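Results reflect a 48-hour exposure of cells in 96-well plates to compound at five concentrations. Abbreviation: GI50, concentration required for 50% inhibition of growth. TGI denotes the concentration required for complete inhibition of growth.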

Assays:
Assay in all cases: NCI anticancer screen, dose series, 48 h
MALME-3M melanoma = system: MALME-3M melanoma
SW-620 colon = system: SW-620 colon
NCI-H226 lung = system: NCI-H226 lung
CAKI-1 renal = system: CAKI-1 renal
OVCAR-4 ovarian = system: OVCAR-4 ovarian
KM20L2 colon = system: KM20L2 colon
HCC-2998 colon = system: HCC-2998 colon
OVCAR-3 ovarian = system: OVCAR-3 ovarian
SNB-75 CNS = system: SNB-75 CNS
SF-268 CNS = system: SF-268 CNS
SF-295 CNS = system: SF-295 CNS
M14 melanoma = system: M14 melanoma

| SMILES | TGI (MALME-3M melanoma) | TGI (SW-620 colon) | TGI (NCI-H226 lung) | TGI (CAKI-1 renal) | TGI (OVCAR-4 ovarian) | TGI (KM20L2 colon) | TGI (HCC-2998 colon) | TGI (OVCAR-3 ovarian) | TGI (SNB-75 CNS) | TGI (SF-268 CNS) | TGI (SF-295 CNS) | TGI (M14 melanoma) | GI50 (MALME-3M melanoma) | GI50 (SW-620 colon) | GI50 (NCI-H226 lung) | GI50 (OVCAR-4 ovarian) | GI50 (HCC-2998 colon) | GI50 (M14 melanoma) | GI50 (SF-295 CNS) |
| --- | --- | --- | --- | --- | --- | --- | --- | --- | --- | --- | --- | --- | --- | --- | --- | --- | --- | --- | --- |
| O=C(NC(Cc1ccc(I)cc1)C(=O)O)c1ccc(Br)cc1 (stereo not drawn) | > 100 µM | > 100 µM | > 100 µM | > 100 µM | > 100 µM | > 100 µM | > 100 µM | > 100 µM | > 100 µM | > 100 µM | > 100 µM | – | – | – | – | – | – | – | – |
| COc1ccc(/C(Cl)=C(\C=O)c2ccc(F)cc2)cc1OC | 72 µM | > 100 µM | 47.2 µM | 63.2 µM | – | 34.1 µM | – | 64.6 µM | 13.7 µM | 83.3 µM | 63.2 µM | 47.9 µM | – | – | – | – | – | – | – |
| Cc1[nH]c(=O)[nH]c(=O)c1/C=C/C(=O)O | > 1000 µM | > 1000 µM | > 1000 µM | > 1000 µM | > 1000 µM | > 1000 µM | > 1000 µM | > 1000 µM | > 1000 µM | > 1000 µM | > 1000 µM | – | – | – | – | – | – | – | – |
| C[C@]12CCc3nc(Nc4ccccc4)sc3C1=CC[C@@H]1[C@@H]2CC[C@]2(C)/C(=N/NC(N)=S)CC[C@@H]12 | > 100 µM | > 100 µM | 5.71 µM | – | > 100 µM | – | > 100 µM | – | – | – | 72.3 µM | > 100 µM | 3 µM | 3.09 µM | 2.07 µM | 7.86 µM | 32.6 µM | 3.71 µM | 3.75 µM |
| COc1ccc2nc3ccccc3c(NCCCCCCN(CCCl)CCCl)c2c1 | – | 0.472 µM | 1.53 µM | 0.197 µM | 1.05 µM | 2.07 µM | – | 3.14 µM | 0.0924 µM | 1.18 µM | 1.01 µM | 0.514 µM | – | – | – | – | – | – | – |
| COc1cc(Nc2c3ccccc3nc3ccccc23)ccc1NS(C)(=O)=O | 21.7 µM | > 100 µM | 23.5 µM | – | 12.3 µM | 17.1 µM | 28.8 µM | – | 47.1 µM | 25.5 µM | 15.2 µM | 13.5 µM | – | – | – | – | – | – | – |
| Cc1ccc(S(=O)(=O)OCC(=O)O)cc1 | > 100 µM | > 100 µM | – | > 100 µM | > 100 µM | – | – | > 100 µM | – | > 100 µM | > 100 µM | > 100 µM | – | – | – | – | – | – | – |
| COC(=O)C1=C(C(=O)OC)SC2(S1)C1=C(CCCC1)SC(C(=O)OC)=C2C(=O)OC | 24.3 µM | 17.1 µM | – | 13.5 µM | 25.3 µM | – | 28.2 µM | 18.9 µM | – | 22.3 µM | 27.8 µM | 32.5 µM | – | – | – | – | – | – | – |
| Nc1ccc2[nH]c3c(-c4ccccc4)nccc3c2c1 | > 100 µM | > 100 µM | > 86.1 µM | – | > 75.5 µM | > 100 µM | 96.8 µM | > 100 µM | > 92.7 µM | > 100 µM | > 100 µM | – | – | – | – | – | – | – | – |
| N=C(N)c1ccc(N=Nc2c(O)ccc3c2[nH]c2ccccc23)cc1 | > 80.8 µM | 4.85 µM | > 90.6 µM | > 100 µM | > 28.5 µM | – | – | 5.67 µM | > 100 µM | > 100 µM | > 84.4 µM | > 100 µM | – | – | – | – | – | – | – |
